The text below walks through data of the Bradley open melting point set (2014).

Several values for one entry are separate records, joined by “and”; a condition that tells them apart may be missing. Equal entries are not always repeated.

Take `[2H]c1c([2H])c2c([2H])c([2H])c3c([2H])c([2H])c([2H])c4c([2H])c([2H])c(c1[2H])c2c34` [(~2~H_10_)Pyrene]: the melting point – broadly, the temperature of the solid-liquid transition – was 156 °C.

In the case of `O/N=C(\c1ccccc1)C(O)c1ccccc1` (configuration not stated) [(2E)-2-(Hydroxyimino)-1,2-diphenylethanol], the melting point is 154 °C.

With `O=C(O)c1ccccc1O` [Salicylic acid], the melting point was found to be 159 °C.

`C[C@]12CC[C@H]3[C@@H](CCC4=CC(=O)CC[C@@]43C)[C@@H]1CC[C@@H]2O` [(17beta)-17-Hydroxyandrost-4-en-3-one] registered a melting point of 155 °C.

Compound `c1ccc2c(c1)-c1ccccc1-2` [biphenylene] returned a melting point of 115 °C.

The compound `COC(=O)CC#N` [methyl cyanoacetate] showed a melting point of -23 °C.

In turn, `Clc1cc(Cl)c(I)cc1Cl` [1,2,4-trichloro-5-iodobenzene] returned a melting point of 104 °C.

On to `Cc1cc(N)ccc1Br` [4-bromo-3-methylaniline], for which the melting point worked out at 81 °C.

`CC(=O)N[C@@H](Cc1ccc(O)cc1)C(=O)O` [N-acetyl-l-tyrosine] came in with a melting point of 153 °C.

As for `Sc1ccc(Br)cc1` [4-bromothiophenol], the melting point was determined as 75 °C.

Compound `COc1ccc(C=C2C3=C(CCCC3)OC3=C2CCCC3)cc1` gave a melting point of 124 °C.

As to `CC(=O)Nc1nc(O)c2ncn(COCCOC(C)=O)c2n1` [N,O-Diacetylacyclovir], the melting point turned out to be 204 °C.

Compound `COC` [Dimethyl ether] returned a melting point of -138 °C.

Compound `CCCCB(CCCC)CCCC` [tri-n-butylborane] showed a melting point of -34 °C.

Compound `CCCCC(CC)CO` (configuration not stated) [2-Ethylhexan-1-ol] yielded a melting point of -76 °C.

With `O=[N+]([O-])c1cc(C(F)(F)F)cc([N+](=O)[O-])c1Cl` [2-Chloro-1,3-dinitro-5-(trifluoromethyl)benzene], the melting point turned out to be 57 °C.

Turning to `C=Cc1cccc([N+](=O)[O-])c1` [1-Nitro-3-vinylbenzene], the melting point was -5 °C.

In the case of `CCOC(=O)/C(C#N)=N\Nc1ccc(Cl)cc1` [Ethyl (2Z)-[(4-chlorophenyl)hydrazono](cyano)acetate], the melting point is 162 °C.

Compound `BrCC(Br)CBr` [1,2,3-tribromopropane] came in with a melting point of 17 °C.

`CC[C@H](C)C(=O)O[C@H]1C[C@@H](C)C=C2C=C[C@H](C)[C@H](CC[C@@H]3C[C@@H](O)CC(=O)O3)[C@H]21` [Lovastatin] showed a melting point of 175 °C.

`CCOC(=O)N1C(=O)c2ccccc2C1=O` [N-(ethoxycarbonyl)phthalimide] registered a melting point of 81 °C.

As to `O=C1C(Cl)=CC(=NCl)C=C1Cl` [2,6-Dichloro-4-(chloroimino)cyclohexa-2,5-dien-1-one], the melting point was 67 °C.

Consider `CCC1(c2ccccc2)C(=O)NC(=O)N(C)C1=O` (configuration not stated) [Methylphenobarbital], for which the melting point was 176 °C.

In turn, `Nc1ccc(CO)cc1` [4-aminobenzyl alcohol] registered a melting point of 61 °C.

With `CC(C)C(O)C(C)(C)CO` (configuration not stated) [2,2,4-trimethyl-1,3-pentanediol], the melting point is 52 °C.

As for `Cc1ccc(B(O)O)cc1N` [3-amino-4-methylbenzeneboronic acid], the melting point came out at 250 °C.

With `COC1=C(OC)/C(=C/C=O)OC1=O` [(2Z)-(3,4-dimethoxy-5-oxofuran-2(5H)-ylidene)ethanal], the melting point was 61 °C.

In turn, `N#Cc1ccccc1N` [2-aminobenzonitrile] registered a melting point of 48 °C.

As to `Cc1ccc(C(=O)O)cc1` [4-Methylbenzoic acid], the melting point amounted to 180 °C.

In the case of `BrBr` [Bromine], the melting point is -7.2 °C.

Consider `C1CCCC1` [cyclopentane], for which the melting point is -94 °C (2×) and -93.9 °C.

With `CC(C)C#N` [isobutyronitrile], the melting point is -72 °C.

`OC1CCCC1` [Cyclopentanol] gave a melting point of -19 °C.

`Clc1cccc(Cl)c1Cl` [1,2,3-trichlorobenzene] came in with a melting point of 54 °C.

Take `Cc1cccc(-c2ccccc2)c1` [3-methylbiphenyl]: the melting point amounted to 5 °C.

`CN1CCCN(C)C1=O` [1,3-dimethyl-3,4,5,6-tetrahydro-2(1h)-pyrimidinone] yielded a melting point of -23 °C.

Take `c1ccc2c(c1)c1ccccc1c1ccccc21` [triphenylene]: the melting point is 199 °C and 196 °C and 197 °C.

In turn, `CCCC(=O)CCC` [Heptan-4-one] returned a melting point of -33 °C.

As to `CC#CCO` [2-butyn-1-ol], the melting point was -2 °C.

With `Nc1ccc(CCC(=O)O)cc1` [3-(4-aminophenyl)propionic acid], the melting point turned out to be 134 °C.

Take `COc1ccc(N/N=C(\C#N)c2nc(-c3ccccc3)cs2)cc1`: the melting point was 151 °C.

In the case of `CC1(C)CCCC(C)(C)N1` [2,2,6,6-tetramethylpiperidine], the melting point was -59 °C.

On to `O[C@@H]1CC[C@H](C[C@H]1OC)/C=C(C)[C@H]2OC(=O)[C@@H]4CCCCN4C(=O)C(=O)[C@]3(O)O[C@H]([C@H](C[C@@H](C)CC(C)=C[C@@H](CC=C)C(=O)C[C@H](O)[C@H]2C)OC)[C@H](C[C@H]3C)OC` [Tacrolimus], for which the melting point worked out at 126 °C.

The compound `COc1cc(Cc2cnc(N)nc2N)cc(OC)c1OC` [trimethoprim] came in with a melting point of 200 °C.

With `NNC(=O)c1ccc([N+](=O)[O-])o1` [5-nitro-2-furohydrazide], the melting point came out at 171 °C.

The compound `BrCCBr` [1,2-dibromoethane] came in with a melting point of 10 °C.

Compound `O=C(O)/C=C/c1cccc(Br)c1` [trans-3-bromocinnamic acid] returned a melting point of 180 °C.

`OC(COc1ccccc1)COc1ccccc1` [1,3-diphenoxy-2-propanol] had a melting point of 82 °C.

Take `Cn1c(/C(C#N)=N/Nc2ccc(Cl)cc2Cl)nc2ccccc21`: the melting point was 161 °C.

With `CO[C@@]12[C@H](COC(N)=O)C3=C(C(=O)C(C)=C(N)C3=O)N1C[C@@H]1N[C@@H]12` [mitomycin c], the melting point was 360 °C.

`O=[N+]([O-])c1ccc2[nH]ccc2c1` [5-nitroindole]: the melting point came out at 141 °C.

For `OCCCCCCCCCO` [1,9-nonanediol], the melting point came out at 47 °C.

`ClCCl` [dichloromethane]: the melting point was -95 °C.

As to `c1ccc2c(c1)OCCOCCOCCOCCOCCO2` [benzo-18-crown-6], the melting point was determined as 44 °C.

Consider `O=C1CN=C(c2ccccc2)c2cc(Cl)ccc2N1CC(F)(F)F` [halazepam], for which the melting point is 164 °C.

The compound `COC(=O)c1cc(OC)c(O)c(OC)c1` [methyl 3,5-dimethoxy-4-hydroxybenzoate] had a melting point of 106 °C.

Regarding `N#Cc1ccc(C(F)(F)F)cc1[N+](=O)[O-]` [2-nitro-4-(trifluoromethyl)benzonitrile], the melting point is 42 °C.

`Oc1ccc(C(c2ccccc2)(c2ccccc2)c2ccccc2)cc1` [4-tritylphenol] yielded a melting point of 281 °C.

`C=CCC1(CC(C)C)C(=O)NC(=O)NC1=O` [BUTALBITAL] came in with a melting point of 138 °C.

In turn, `O=c1cccccc1O` [tropolone] came in with a melting point of 53 °C.

As for `CCCCCI` [1-iodopentane], the melting point is -86 °C.

With `C[C@]12CC[C@H]3[C@@H](CCC4=CC(=O)CC[C@@]43C)[C@@H]1CC[C@@H]2C(=O)CO` [Deoxycorticosterone], the melting point stood at 142 °C.

On to `Brc1cc(Br)c(Br)cc1Br` [1,2,4,5-tetrabromobenzene], for which the melting point was 182 °C.

With `O=C(Oc1ccccc1)c1ccccc1` [phenyl benzoate], the melting point is 69 °C.

Consider `O=[N+]([O-])c1ccccc1O` [2-nitrophenol], for which the melting point amounted to 46 °C.

For `CCCCCCCCCCc1ccc(-c2ccccc2)cc1` [4-n-decylbiphenyl], the melting point came out at 53 °C.

For `CC(C)(C)C#N` [trimethylacetonitrile], the melting point is 17 °C.

Consider `O=C(Cl)C(Cl)(Cl)Cl` [Trichloroacetyl chloride], for which the melting point was -146 °C.

For `CCOC(=O)C1(c2ccccc2)CCN(C)CC1` [Meperidine], the melting point is 188 °C.

`C[Si](C)(C)Cl` [chlorotrimethylsilane] returned a melting point of -58 °C.

As to `c1ccc(P(CCCP(c2ccccc2)c2ccccc2)c2ccccc2)cc1` [1,3-bis(diphenylphosphino)propane], the melting point was found to be 61 °C.

Turning to `O=C1O[C@H]([C@@H](O)CO)C(O)=C1O` [ascorbic acid], the melting point turned out to be 191 °C.

For `OC[C@@H](O)[C@@H](O)[C@@H](O)CO` [adonitol], the melting point is 103 °C.

`Oc1ccc(F)cc1` [4-fluorophenol] yielded a melting point of 46 °C.

Consider `O=C1c2ccccc2C(C2=CCCCC2)N1Cc1ccccc1` (configuration not stated) [2-Benzyl-3-cyclohexenylisoindolin-1-one], for which the melting point came out at 110 °C.

Regarding `CS(=O)c1ccc(cc1)/C=C3c2ccc(F)cc2C(CC(=O)O)=C3C` (configuration not stated) [sulindac], the melting point was determined as 185 °C.

`O=C1CN=C(c2ccccc2F)c2cc(Cl)ccc2N1CC1CC1` [flutoprazepam]: the melting point was 118 °C.

For the compound `OC[C@@H](O)[C@H](O)[C@H](O)[C@@H](O)CO` [dulcitol], the melting point came to 189 °C.

Regarding `CN(C)c1ccc(C=O)cc1` [p-dimethylaminobenzaldehyde], the melting point turned out to be 75 °C.

Consider `CC(C)(C)C1CCC(=O)CC1` [4-tert-butylcyclohexanone], for which the melting point is 49 °C.

The compound `NC(=O)Cc1cccc2ccccc12` [1-naphthylacetamide] gave a melting point of 177 °C.

In the case of `OCCN(CCO)C(CO)(CO)CO` [2,2-bis(hydroxymethyl)-2,2',2''-nitrilotriethanol], the melting point is 104 °C.

Consider `O=C(O)c1ccc(Cl)cc1Cl` [2,4-dichlorobenzoic_acid], for which the melting point amounted to 159 °C.

As for `CC1CCC(C(C)C)C(OC(=O)C(=O)/C=C/c2ccccc2)C1` (configuration not stated), the melting point turned out to be 46 °C.

In turn, `C=CCSCC=C` [diallyl sulfide] had a melting point of -83 °C.

`C=CC1=C(/C=N/Nc2ccc([N+](=O)[O-])cc2[N+](=O)[O-])CCCC1` returned a melting point of 153 °C.

In turn, `CC1=C(C(=O)O)N2C(=O)[C@@H](NC(=O)[C@H](N)C3=CCC=CC3)[C@H]2SC1` [Cefradine] had a melting point of 140 °C.
